Measurements as given in US20070092551A1, “Therapeutic agent” (TAKARA BIO INC., priority 2003, published 2007).

How the values were obtained:
[1] = test system: mature adipocytes (3T3-L1 cells); assay: Synergistic action of 4-hydroxyderricin and insulin to enhance glucose uptake; assay type: cell-based
Experimental: As the evaluation of synergistic action of 4-hydroxyderricin prepared in Example 2 and a low-concentration insulin to enhance glucose uptake, the amount of 2-deoxyglucose uptake into mature adipocytes during the stimulation with the sample was determined partly in accordance with the method described in Example 83.
The mature adipocytes were prepared according to the method described in item (1) of Example 83.
After the termination of the culture, the medium was removed, and the cells were washed twice with a 0.1% (w/v) bovine serum albumin (manufactured by Sigma, A8022)-containing Dulbecco's modified Eagle's medium. Thereafter, 1 mL of the same medium containing a solution of 4-hydroxyderricin in dimethyl sulfoxide having a final concentration of 5 μM was added thereto. The cells were cultured overnight at 37° C. in the presence of 5% carbon dioxide gas. Here, a group without addition of 4-hydroxyderricin was set as a negative control. After the overnight culture, the cells were washed twice with a HEPES buffered saline (140 mM NaCl, 5 mM KCl, 2.5 mM MgSO4, 1 mM CaCl2, 20 mM HEPES-Na (pH 7.4)). The amount 0.9 mL of the same buffer containing 4-hydroxyderricin having a final concentration of 5 μM was added thereto. […] Thereafter, 2-deoxy-[1,2-^3H(N)]-glucose subjected to uptake into the adipocytes was determined in the same manner as the method described in item (2) of Example 83.

[2] = test system: type II diabetes model mice; assay: Amelioration effects on diabetes of 4-hydroxyderricin (blood glucose level); assay type: in vivo; details: male KK-Ay mice
Experimental: Pathological amelioration effects of 4-hydroxyderricin were examined using type II diabetes model mice. Experiments were carried out with five male 12-week old KK-Ay mice (CLEA Japan, Inc.) per group. 4-Hydroxyderricin was suspended or dissolved in a 0.5% (w/v) carboxymethyl cellulose solution (CMC) so as to have a concentration of 4% (w/v), and the suspension or solution was forcibly orally administered to the mice once a day at 200 mg/kg for consecutive days. CMC was administered to each mice in the control group at 5 mL/kg in the same manner. On the day before the beginning of administration, on the fourth day and on the eighteenth day, blood was collected from the veins of mouse tails, and the blood glucose level was determined with a simple blood glucose meter, ACCU-CHEK Compact (Roche Diagnostics K.K.). […] Here, during the experimental period, no changes were found in body weight and general symptoms.

[3] = test system: type II diabetes model mouse; assay: Glucose tolerance test, 4-hydroxyderricin and combined use with xanthoangelol; assay type: in vivo; details: male KK-Ay mice
Experimental: Amelioration effects for glucose tolerance by 4-hydroxyderricin and combined use of 4-hydroxyderricin and xanthoangelol were examined using a type II diabetes model mouse. Experiments were carried out with five male 12-week old KK-Ay mice (CLEA Japan, Inc.) per group. 4-Hydroxyderricin which was previously suspended or dissolved in an olive oil so as to have a concentration of 4% (w/v) was forcibly orally administered to a group to be administered with 4-hydroxyderricin at 200 mg/kg once a day for consecutive days. 4-Hydroxyderricin and xanthoangelol which were each suspended or dissolved in an olive oil to 4% (w/v) were mixed in equal volumes, and the mixture was forcibly orally administered to a group to be administered with a combined use of 4-hydroxyderricin and xanthoangelol once a day for consecutive days so that each administration concentration became 100 mg/kg. An olive oil was administered to the mice in the control group at 5 mL/kg in the same manner. The mice were fasted over one night spanning from the fifteenth day to the sixteenth day from administration, and a glucose tolerance test was carried out. Four hours after the administration of the sample, a 10% glucose solution was intraperitoneally administered at 1 g/kg. Thirty minutes before glucose tolerance and 30 minutes after the tolerance, blood was collected from veins of the tail, and the blood glucose level was determined with a simple blood glucose meter, ACCU-CHEK Compact (Roche Diagnostic K.K.).

[4] = 200 mg/kg oral once a day in CMC, mean ± standard error

COc1ccc(C(=O)/C=C/c2ccc(O)cc2)c(O)c1CC=C(C)C [4-Hydroxyderricin, 4,2′-Dihydroxy-3′-prenyl-4′-methoxychalcone]
2-deoxy-[1,2-3H(N)]-glucose uptake on addition simultaneously with insulin ([1]; 4-hydroxyderricin 5 μM + insulin 0.01 μg/mL, versus each alone): synergistically increasing the enhancing activity on glucose uptake
2-deoxy-[1,2-3H(N)]-glucose uptake ([1]; 4-hydroxyderricin 5 μM alone, compared to the negative control): enhancement of 2-deoxy-[1,2-^3H(N)]-glucose uptake
blood glucose level (in words) ([2]; 200 mg/kg oral once a day): lowered
Blood Glucose Level, Eighteenth Day [2, 4]: 191 ± 10 mg/dL
Blood Glucose Level, Fourth Day [2, 4]: 187 ± 9 mg/dL
changes in body weight and general symptoms ([2]; 200 mg/kg oral once a day, experimental period): no changes
Blood Glucose Level, Previous Day ([2]; day before beginning of administration, 200 mg/kg oral once a day in CMC, mean ± standard error): 262 ± 14 mg/dL
amelioration effects for glucose tolerance (in words) ([3]; 4-hydroxyderricin 200 mg/kg alone or combined use 100 mg/kg each): amelioration effects for glucose tolerance were found
Blood Glucose Level, Before Glucose Tolerance ([3]; 200 mg/kg oral once a day, sixteenth day, fasted, 30 minutes before glucose 1 g/kg i.p.): 93 ± 2 mg/dL
Blood Glucose Level, 30 Minutes After Tolerance ([3]; 200 mg/kg oral once a day, sixteenth day, fasted, glucose 1 g/kg i.p.): 224 ± 11 mg/dL
